One may read the MIC80 as an inhibitory concentration at the 80% level, which refers to growth in some studies and to a panel of isolates in others.

Holding throughout (assay type): functional
The test system of one experiment is Candida albicans. The experiment in a line: Antifungal activity against Candida albicans by serial dilution method.
A further experiment has as its system Candida tropicalis. The experiment in a line: Antifungal activity against Candida tropicalis by serial dilution method.
Another experiment has as its system Aspergillus fumigatus. The experiment in a line: Antifungal activity against Aspergillus fumigatus by serial dilution method.
Another experiment has as its system Candida parapsilosis. The experiment in a line: Antifungal activity against Candida parapsilosis by serial dilution method. The settings on record: Lodderomyces parapsilosis.
The subject of another experiment is Cryptococcus neoformans. The experiment in a line: Antifungal activity against Cryptococcus neoformans by serial dilution method.
The subject of another experiment is Nannizzia gypsea. The experiment in a line: Antifungal activity against Microsporum gypseum by serial dilution method.
For the next experiment, the system named is Trichophyton rubrum. In words: Antifungal activity against Trichophyton rubrum by serial dilution method.

Molecules are shown by their SMILES. In brackets after ≈: the same amount, converted by molar mass. Some results are limits rather than exact numbers.

In the case of `Fc1cccc(F)c1OCc1nc2c(OCCCNCc3cccnc3)cccc2o1`, the MIC80 against Candida albicans is 64 µg/mL (≈ 150 µM); in the experiment on Candida tropicalis it was 1 µg/mL (≈ 2.35 µM); in the experiment on Aspergillus fumigatus it was more than 64 µg/mL; in the experiment with Candida parapsilosis, 4 µg/mL (≈ 9.4 µM); against Cryptococcus neoformans, 64 µg/mL (≈ 150 µM).
In the case of `Fc1ccc(OCc2nc3c(OCCCNCc4cccnc4)cccc3o2)c(F)c1`, the MIC80 is 1 µg/mL (≈ 2.35 µM) in the experiment on Candida albicans; 1 µg/mL (≈ 2.35 µM) with Candida tropicalis; more than 64 µg/mL in the experiment on Aspergillus fumigatus; 0.25 µg/mL (≈ 0.588 µM) with Candida parapsilosis; 16 µg/mL (≈ 37.6 µM) against Cryptococcus neoformans.
In the case of `O=C(Nc1ccc(F)c(F)c1)c1cc2c(OCCCNCc3cccnc3)cccc2[nH]1`, the MIC80 with Candida albicans was more than 128 µg/mL; against Aspergillus fumigatus, more than 128 µg/mL; against Nannizzia gypsea, 16 µg/mL (≈ 36.7 µM); in the experiment on Trichophyton rubrum it was 32 µg/mL (≈ 73.3 µM); with Cryptococcus neoformans it was 128 µg/mL (≈ 293 µM).
As to `Fc1ccc(OCc2cc3c(OCCCNCc4cccnc4)cccc3[nH]2)c(F)c1`, the MIC80 against Candida albicans was more than 128 µg/mL; against Aspergillus fumigatus, more than 128 µg/mL; against Nannizzia gypsea it was 8 µg/mL (≈ 18.9 µM); with Trichophyton rubrum, 32 µg/mL (≈ 75.6 µM); in the experiment on Cryptococcus neoformans, 64 µg/mL (≈ 151 µM).
For the compound `Fc1ccccc1OCc1nc2c(OCCCNCc3cccnc3)cccc2o1`, the MIC80 with Candida albicans was 4 µg/mL (≈ 9.82 µM); against Candida tropicalis, 0.0625 µg/mL (≈ 0.153 µM); against Aspergillus fumigatus, more than 64 µg/mL; in the experiment with Candida parapsilosis, 1 µg/mL (≈ 2.45 µM); in the experiment with Cryptococcus neoformans it was 16 µg/mL (≈ 39.3 µM).
For `Clc1cccc(Cl)c1SCc1cc2c(OCCCNCc3cccnc3)cccc2[nH]1`, the MIC80 against Candida albicans is 64 µg/mL (≈ 135 µM); in the experiment on Aspergillus fumigatus it was more than 128 µg/mL; against Nannizzia gypsea, 4 µg/mL (≈ 8.47 µM); in the experiment on Trichophyton rubrum, 16 µg/mL (≈ 33.9 µM); against Cryptococcus neoformans it was 64 µg/mL (≈ 135 µM).
`CCOC(=O)c1oc2cccc(OCCCNCc3cccnc3)c2c1C`: the MIC80 is 1 µg/mL (≈ 2.71 µM) against Candida albicans; 1 µg/mL (≈ 2.71 µM) against Candida tropicalis; more than 64 µg/mL against Aspergillus fumigatus; 4 µg/mL (≈ 10.9 µM) against Nannizzia gypsea; 4 µg/mL (≈ 10.9 µM) in the experiment with Candida parapsilosis; 4 µg/mL (≈ 10.9 µM) against Trichophyton rubrum. Moreover, the MIC80 in the experiment with Cryptococcus neoformans is 64 µg/mL (≈ 174 µM).
Take `Fc1ccc(OCc2cc3c(OCCCNCc4cccnc4)cccc3[nH]2)cc1`: the MIC80 in the experiment on Candida albicans was more than 128 µg/mL; against Aspergillus fumigatus it was more than 128 µg/mL; against Nannizzia gypsea, 32 µg/mL (≈ 78.9 µM); against Trichophyton rubrum, 128 µg/mL (≈ 316 µM); in the experiment with Cryptococcus neoformans it was 128 µg/mL (≈ 316 µM).
On to `O=C(Nc1cccc(F)c1)c1cc2c(OCCCNCc3cccnc3)cccc2[nH]1`, for which the MIC80 is 128 µg/mL (≈ 306 µM) with Candida albicans; more than 128 µg/mL with Aspergillus fumigatus; 32 µg/mL (≈ 76.5 µM) in the experiment with Nannizzia gypsea; 64 µg/mL (≈ 153 µM) against Trichophyton rubrum; 128 µg/mL (≈ 306 µM) with Cryptococcus neoformans.
For the compound `c1ccc(OCc2nc3c(OCCCNCc4cccnc4)cccc3o2)cc1`, the MIC80 in the experiment with Candida albicans is 16 µg/mL (≈ 41.1 µM); against Candida tropicalis, 0.25 µg/mL (≈ 0.642 µM); against Aspergillus fumigatus, more than 64 µg/mL; in the experiment on Candida parapsilosis, 1 µg/mL (≈ 2.57 µM); against Cryptococcus neoformans, 64 µg/mL (≈ 164 µM).
As to `CCOC(=O)c1cc2c(OCCCNCc3cccnc3)cccc2[nH]1`, the MIC80 with Candida albicans is more than 128 µg/mL; against Aspergillus fumigatus, more than 128 µg/mL; against Nannizzia gypsea it was 32 µg/mL (≈ 90.5 µM); against Trichophyton rubrum, 64 µg/mL (≈ 181 µM); with Cryptococcus neoformans, more than 128 µg/mL.
As to `O=C(Nc1ccc(Cl)cc1)c1cc2c(OCCCNCc3cccnc3)cccc2[nH]1`, the MIC80 is more than 128 µg/mL against Candida albicans; more than 128 µg/mL in the experiment on Aspergillus fumigatus; 32 µg/mL (≈ 73.6 µM) with Nannizzia gypsea; 128 µg/mL (≈ 294 µM) with Trichophyton rubrum; more than 128 µg/mL against Cryptococcus neoformans.
Turning to `Cc1c(COc2ccc(F)c(F)c2F)oc2cccc(OCCCNCc3cccnc3)c12`, the MIC80 turned out to be 0.125 µg/mL (≈ 0.274 µM) against Candida albicans; 0.125 µg/mL (≈ 0.274 µM) against Candida tropicalis; 16 µg/mL (≈ 35.1 µM) with Aspergillus fumigatus; 2 µg/mL (≈ 4.38 µM) against Nannizzia gypsea; 0.0625 µg/mL (≈ 0.137 µM) against Candida parapsilosis; 1 µg/mL (≈ 2.19 µM) in the experiment on Trichophyton rubrum. Further, in the experiment with Cryptococcus neoformans, the MIC80 stood at 0.5 µg/mL (≈ 1.1 µM).
On to `O=C(Nc1ccccc1Cl)c1cc2c(OCCCNCc3cccnc3)cccc2[nH]1`, for which the MIC80 against Candida albicans was more than 128 µg/mL; against Aspergillus fumigatus, more than 128 µg/mL; against Nannizzia gypsea, 2 µg/mL (≈ 4.6 µM); against Trichophyton rubrum, 128 µg/mL (≈ 294 µM); with Cryptococcus neoformans, more than 128 µg/mL.
Take `Fc1cc(F)c(OCc2nc3c(OCCCNCc4cccnc4)cccc3o2)c(F)c1`: the MIC80 is 16 µg/mL (≈ 36.1 µM) in the experiment on Candida albicans; 1 µg/mL (≈ 2.26 µM) against Candida tropicalis; 64 µg/mL (≈ 144 µM) against Aspergillus fumigatus; 1 µg/mL (≈ 2.26 µM) in the experiment with Candida parapsilosis; 16 µg/mL (≈ 36.1 µM) with Cryptococcus neoformans.
Turning to `OC(Cn1cncn1)(Cn1cncn1)c1ccc(F)cc1F` [FLUCONAZOLE], the MIC80 is 0.25 µg/mL (≈ 0.816 µM) in the experiment with Candida albicans; 4 µg/mL (≈ 13.1 µM) against Candida tropicalis; more than 64 µg/mL against Aspergillus fumigatus; 16 µg/mL (≈ 52.2 µM) against Nannizzia gypsea; 4 µg/mL (≈ 13.1 µM) against Candida parapsilosis; 1 µg/mL (≈ 3.27 µM) against Trichophyton rubrum. In addition, in the experiment on Cryptococcus neoformans, the MIC80 came to 1 µg/mL (≈ 3.27 µM).
As to `O=[N+]([O-])c1cccc(OCc2nc3c(OCCCNCc4cccnc4)cccc3o2)c1`, the MIC80 with Candida albicans was more than 64 µg/mL; against Candida tropicalis, 0.25 µg/mL (≈ 0.575 µM); against Aspergillus fumigatus it was more than 64 µg/mL; in the experiment on Candida parapsilosis it was 4 µg/mL (≈ 9.21 µM); against Cryptococcus neoformans it was more than 64 µg/mL.
`Fc1ccc(OCc2nc3c(OCCCNCc4cccnc4)cccc3o2)c(F)c1F`: the MIC80 is 0.25 µg/mL (≈ 0.564 µM) against Candida albicans; 0.25 µg/mL (≈ 0.564 µM) against Candida tropicalis; more than 64 µg/mL with Aspergillus fumigatus; 0.25 µg/mL (≈ 0.564 µM) in the experiment with Candida parapsilosis; 64 µg/mL (≈ 144 µM) against Cryptococcus neoformans.
As for `O=C(Nc1ccccc1)c1cc2c(OCCCNCc3cccnc3)cccc2[nH]1`, the MIC80 in the experiment on Candida albicans is more than 128 µg/mL; with Aspergillus fumigatus, more than 128 µg/mL; in the experiment with Nannizzia gypsea it was 32 µg/mL (≈ 79.9 µM); in the experiment with Trichophyton rubrum, 64 µg/mL (≈ 160 µM); in the experiment with Cryptococcus neoformans it was more than 128 µg/mL.
`Fc1ccc(OCc2nc3c(OCCCNCc4cccnc4)cccc3o2)cc1`: the MIC80 against Candida albicans is 16 µg/mL (≈ 39.3 µM); in the experiment on Candida tropicalis, 1 µg/mL (≈ 2.45 µM); with Aspergillus fumigatus, more than 64 µg/mL; in the experiment on Candida parapsilosis, 1 µg/mL (≈ 2.45 µM); in the experiment on Cryptococcus neoformans it was 16 µg/mL (≈ 39.3 µM).
For the compound `c1ccc(SCc2cc3c(OCCCNCc4cccnc4)cccc3[nH]2)cc1`, the MIC80 was 128 µg/mL (≈ 317 µM) against Candida albicans; more than 128 µg/mL against Aspergillus fumigatus; 8 µg/mL (≈ 19.8 µM) against Nannizzia gypsea; 64 µg/mL (≈ 159 µM) against Trichophyton rubrum; 64 µg/mL (≈ 159 µM) in the experiment with Cryptococcus neoformans.

The values above are taken from ChEMBL document CHEMBL1240460, “Design, synthesis and antifungal activity of isosteric analogues of benzoheterocyclic N-myristoyltransferase inhibitors” (2010).
